Active and inactive are the calls of the source.
What was measured:
[1] = biological target: T1, High affinity choline transporter 1 (Homo sapiens, UniProt Q9GZV3); test: human choline transporter blockers, potency – cell-based, 5-point CRC, membrane potential dye, dose response (AID 504840); assay type: functional
T1 sequence (Q9GZV3 whole entry): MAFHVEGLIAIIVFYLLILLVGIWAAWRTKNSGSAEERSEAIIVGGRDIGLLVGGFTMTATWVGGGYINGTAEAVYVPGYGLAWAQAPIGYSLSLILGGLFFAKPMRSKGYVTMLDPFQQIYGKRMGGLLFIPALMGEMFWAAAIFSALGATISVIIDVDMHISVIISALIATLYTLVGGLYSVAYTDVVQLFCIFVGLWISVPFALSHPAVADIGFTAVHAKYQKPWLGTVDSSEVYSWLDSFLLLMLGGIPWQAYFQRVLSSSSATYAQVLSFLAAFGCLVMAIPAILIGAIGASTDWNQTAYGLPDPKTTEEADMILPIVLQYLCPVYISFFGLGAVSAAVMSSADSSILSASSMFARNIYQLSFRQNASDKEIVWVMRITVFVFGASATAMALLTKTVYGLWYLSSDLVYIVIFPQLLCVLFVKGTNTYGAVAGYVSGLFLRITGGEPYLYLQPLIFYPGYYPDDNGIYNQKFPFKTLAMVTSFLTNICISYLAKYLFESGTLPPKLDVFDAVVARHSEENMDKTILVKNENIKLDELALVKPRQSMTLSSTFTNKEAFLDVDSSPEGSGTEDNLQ

[2] = biological target: T1, High affinity choline transporter 1; test: human choline transporter blockers, potency – cell-based, 10-point CRC, membrane potential dye, dose response (AID 588401); assay type: functional;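 further: membrane potential dye fluorescence of choline-evoked depolarization via CHT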
[3] = biological target: 26S proteasome non-ATPase regulatory subunit 14 (Homo sapiens, UniProt O00487); test: inhibition of proteasome subunit RPN11 – biochemical, fluorescence polarization, uHTS hits, confirmation (AID 602368); assay type: functional
Chain of 26S proteasome non-ATPase regulatory subunit 14 (O00487 whole entry): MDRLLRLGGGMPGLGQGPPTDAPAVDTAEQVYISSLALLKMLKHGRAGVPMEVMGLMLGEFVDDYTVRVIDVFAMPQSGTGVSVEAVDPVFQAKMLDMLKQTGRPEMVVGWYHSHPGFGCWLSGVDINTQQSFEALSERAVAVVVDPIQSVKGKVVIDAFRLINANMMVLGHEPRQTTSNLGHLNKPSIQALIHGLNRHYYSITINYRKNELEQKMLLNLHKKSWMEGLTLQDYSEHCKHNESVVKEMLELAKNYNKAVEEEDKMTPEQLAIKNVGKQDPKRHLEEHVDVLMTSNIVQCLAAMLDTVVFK

Prothrombin = Prothrombin (Bos taurus, UniProt P00735); test: thrombin protease inhibitors – biochemical, fluorescence polarization, uHTS hits, dose response (AID 602369); assay type: functional
Genome polyprotein = Genome polyprotein (dengue virus type 2, UniProt P29990); test: flavivirus cap methylation enzyme inhibition – biochemical, confirmation dose response, primary screen (AID 588689); assay type: functional
Chain of Genome polyprotein (P29990 2492-3391 limits assumed): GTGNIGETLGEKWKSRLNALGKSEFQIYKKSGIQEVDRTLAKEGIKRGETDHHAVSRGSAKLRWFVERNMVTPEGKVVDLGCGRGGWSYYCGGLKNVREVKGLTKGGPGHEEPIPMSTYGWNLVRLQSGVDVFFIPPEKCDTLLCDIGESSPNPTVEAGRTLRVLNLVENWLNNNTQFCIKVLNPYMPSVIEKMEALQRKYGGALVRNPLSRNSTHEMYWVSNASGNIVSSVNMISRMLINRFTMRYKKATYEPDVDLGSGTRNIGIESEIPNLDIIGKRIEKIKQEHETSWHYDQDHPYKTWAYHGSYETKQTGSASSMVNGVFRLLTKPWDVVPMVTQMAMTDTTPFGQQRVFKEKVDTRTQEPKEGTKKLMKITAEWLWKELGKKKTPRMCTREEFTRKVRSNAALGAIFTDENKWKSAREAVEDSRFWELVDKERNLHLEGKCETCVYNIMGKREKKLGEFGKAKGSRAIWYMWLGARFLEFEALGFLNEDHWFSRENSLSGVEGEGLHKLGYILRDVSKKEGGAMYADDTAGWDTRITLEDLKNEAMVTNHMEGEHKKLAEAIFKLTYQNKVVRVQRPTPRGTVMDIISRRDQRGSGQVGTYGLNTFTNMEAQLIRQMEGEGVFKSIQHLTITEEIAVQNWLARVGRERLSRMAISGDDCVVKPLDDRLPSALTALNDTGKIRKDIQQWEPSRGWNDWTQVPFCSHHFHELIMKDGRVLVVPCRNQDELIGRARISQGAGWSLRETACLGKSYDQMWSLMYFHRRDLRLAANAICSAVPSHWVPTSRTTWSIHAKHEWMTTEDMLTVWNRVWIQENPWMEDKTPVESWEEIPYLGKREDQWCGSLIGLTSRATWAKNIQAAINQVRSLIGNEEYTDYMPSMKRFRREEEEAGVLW

[4] = biological target: T2, Multidrug resistance protein CDR2 (Candida albicans (strain SC5314 / ATCC MYA-2876) (Yeast), UniProt P78595); test: inhibition of Nile Red efflux via Candida CDR2 – S. cerevisiae AD1-8u, singleplex, Cherry Pick1 hits, dose response (AID 588604); assay type: functional
T2 sequence (P78595 whole entry): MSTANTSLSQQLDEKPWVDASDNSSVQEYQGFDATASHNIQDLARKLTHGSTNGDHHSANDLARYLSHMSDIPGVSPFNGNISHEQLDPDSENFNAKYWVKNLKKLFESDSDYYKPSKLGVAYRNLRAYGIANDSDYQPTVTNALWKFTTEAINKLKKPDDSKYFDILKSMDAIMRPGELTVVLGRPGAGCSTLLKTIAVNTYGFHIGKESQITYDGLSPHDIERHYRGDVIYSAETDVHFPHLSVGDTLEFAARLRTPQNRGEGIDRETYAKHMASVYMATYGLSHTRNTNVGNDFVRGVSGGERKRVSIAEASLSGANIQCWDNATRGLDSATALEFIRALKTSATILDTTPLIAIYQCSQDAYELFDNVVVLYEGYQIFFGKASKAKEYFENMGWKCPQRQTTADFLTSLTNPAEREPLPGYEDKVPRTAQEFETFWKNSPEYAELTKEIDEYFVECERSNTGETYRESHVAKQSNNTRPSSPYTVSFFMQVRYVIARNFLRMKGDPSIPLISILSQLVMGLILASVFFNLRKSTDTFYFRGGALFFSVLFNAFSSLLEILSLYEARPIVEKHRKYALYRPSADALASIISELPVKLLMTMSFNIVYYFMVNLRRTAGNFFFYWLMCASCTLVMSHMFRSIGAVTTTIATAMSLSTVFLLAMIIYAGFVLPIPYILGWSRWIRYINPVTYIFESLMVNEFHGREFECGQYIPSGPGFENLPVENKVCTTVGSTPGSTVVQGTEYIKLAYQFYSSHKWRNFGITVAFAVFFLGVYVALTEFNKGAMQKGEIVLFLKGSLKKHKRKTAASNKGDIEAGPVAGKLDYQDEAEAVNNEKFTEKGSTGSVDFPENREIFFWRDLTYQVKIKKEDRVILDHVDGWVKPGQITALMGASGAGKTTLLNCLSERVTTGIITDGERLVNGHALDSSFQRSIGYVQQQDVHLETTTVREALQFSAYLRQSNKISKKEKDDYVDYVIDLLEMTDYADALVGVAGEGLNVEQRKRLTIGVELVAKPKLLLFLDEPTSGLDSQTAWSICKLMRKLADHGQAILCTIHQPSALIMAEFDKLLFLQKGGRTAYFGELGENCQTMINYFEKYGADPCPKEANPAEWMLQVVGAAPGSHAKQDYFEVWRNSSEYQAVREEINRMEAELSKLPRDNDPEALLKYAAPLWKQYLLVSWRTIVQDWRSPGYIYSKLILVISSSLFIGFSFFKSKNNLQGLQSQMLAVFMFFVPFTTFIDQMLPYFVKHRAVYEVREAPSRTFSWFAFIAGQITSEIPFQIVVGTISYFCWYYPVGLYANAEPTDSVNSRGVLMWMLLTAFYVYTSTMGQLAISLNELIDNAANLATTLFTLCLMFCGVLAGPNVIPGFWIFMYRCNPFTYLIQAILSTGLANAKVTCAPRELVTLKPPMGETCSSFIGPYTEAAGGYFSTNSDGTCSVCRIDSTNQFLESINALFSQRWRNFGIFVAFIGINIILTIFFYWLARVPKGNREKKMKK

[5] = biological target: T3, RNA-binding protein pos-1 (Caenorhabditis elegans, UniProt G5EF15); test: disruptors of C. elegans POS-1 RNA interaction – biochemical, fluorescence polarization, dose response (AID 1964);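 further: purified POS-1 fused to maltose binding protein made in E. coli; potency of compounds blocking POS-1 binding to fluorescent RNA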
T3 sequence (G5EF15 whole entry): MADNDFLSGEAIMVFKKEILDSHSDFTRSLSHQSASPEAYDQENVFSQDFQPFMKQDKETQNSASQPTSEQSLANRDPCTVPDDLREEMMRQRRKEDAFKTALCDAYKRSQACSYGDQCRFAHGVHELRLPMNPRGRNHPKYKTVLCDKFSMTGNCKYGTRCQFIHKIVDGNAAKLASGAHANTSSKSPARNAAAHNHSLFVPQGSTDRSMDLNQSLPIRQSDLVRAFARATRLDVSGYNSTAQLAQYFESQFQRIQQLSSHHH

[6] = biological target: 72 kDa type IV collagenase (Homo sapiens, UniProt P08253); test: Dose Response validation of uHTS RPN11 inhibitor hits using a MMP-2 Fluorescence assay.; assay type: functional
Chain of 72 kDa type IV collagenase (P08253 whole entry): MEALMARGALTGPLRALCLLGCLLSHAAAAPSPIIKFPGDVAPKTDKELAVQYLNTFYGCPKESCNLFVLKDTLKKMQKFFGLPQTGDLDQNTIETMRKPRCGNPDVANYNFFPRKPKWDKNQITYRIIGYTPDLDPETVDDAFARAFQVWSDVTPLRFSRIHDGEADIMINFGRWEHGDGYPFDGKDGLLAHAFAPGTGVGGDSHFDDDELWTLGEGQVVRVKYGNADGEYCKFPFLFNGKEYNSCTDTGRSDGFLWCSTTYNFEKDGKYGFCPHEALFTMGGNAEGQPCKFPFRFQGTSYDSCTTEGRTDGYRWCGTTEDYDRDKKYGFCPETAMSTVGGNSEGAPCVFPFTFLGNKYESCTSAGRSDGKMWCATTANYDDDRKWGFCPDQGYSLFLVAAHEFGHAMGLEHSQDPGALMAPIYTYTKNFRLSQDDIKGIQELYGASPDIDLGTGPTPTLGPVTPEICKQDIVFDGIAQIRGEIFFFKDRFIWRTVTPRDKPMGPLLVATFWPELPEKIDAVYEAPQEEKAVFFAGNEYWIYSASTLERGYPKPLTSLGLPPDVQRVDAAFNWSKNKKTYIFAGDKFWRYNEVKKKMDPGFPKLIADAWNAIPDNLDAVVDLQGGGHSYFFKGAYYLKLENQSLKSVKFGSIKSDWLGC

[7] = biological target: Multidrug resistance protein CDR1 (Candida albicans, UniProt P43071); test: inhibition of Nile Red efflux via Candida CDR1 – S. cerevisiae AD1-8u, singleplex, Cherry Pick1 hits, dose response (AID 588606); assay type: functional
Chain of Multidrug resistance protein CDR1 (P43071 whole entry, looked up): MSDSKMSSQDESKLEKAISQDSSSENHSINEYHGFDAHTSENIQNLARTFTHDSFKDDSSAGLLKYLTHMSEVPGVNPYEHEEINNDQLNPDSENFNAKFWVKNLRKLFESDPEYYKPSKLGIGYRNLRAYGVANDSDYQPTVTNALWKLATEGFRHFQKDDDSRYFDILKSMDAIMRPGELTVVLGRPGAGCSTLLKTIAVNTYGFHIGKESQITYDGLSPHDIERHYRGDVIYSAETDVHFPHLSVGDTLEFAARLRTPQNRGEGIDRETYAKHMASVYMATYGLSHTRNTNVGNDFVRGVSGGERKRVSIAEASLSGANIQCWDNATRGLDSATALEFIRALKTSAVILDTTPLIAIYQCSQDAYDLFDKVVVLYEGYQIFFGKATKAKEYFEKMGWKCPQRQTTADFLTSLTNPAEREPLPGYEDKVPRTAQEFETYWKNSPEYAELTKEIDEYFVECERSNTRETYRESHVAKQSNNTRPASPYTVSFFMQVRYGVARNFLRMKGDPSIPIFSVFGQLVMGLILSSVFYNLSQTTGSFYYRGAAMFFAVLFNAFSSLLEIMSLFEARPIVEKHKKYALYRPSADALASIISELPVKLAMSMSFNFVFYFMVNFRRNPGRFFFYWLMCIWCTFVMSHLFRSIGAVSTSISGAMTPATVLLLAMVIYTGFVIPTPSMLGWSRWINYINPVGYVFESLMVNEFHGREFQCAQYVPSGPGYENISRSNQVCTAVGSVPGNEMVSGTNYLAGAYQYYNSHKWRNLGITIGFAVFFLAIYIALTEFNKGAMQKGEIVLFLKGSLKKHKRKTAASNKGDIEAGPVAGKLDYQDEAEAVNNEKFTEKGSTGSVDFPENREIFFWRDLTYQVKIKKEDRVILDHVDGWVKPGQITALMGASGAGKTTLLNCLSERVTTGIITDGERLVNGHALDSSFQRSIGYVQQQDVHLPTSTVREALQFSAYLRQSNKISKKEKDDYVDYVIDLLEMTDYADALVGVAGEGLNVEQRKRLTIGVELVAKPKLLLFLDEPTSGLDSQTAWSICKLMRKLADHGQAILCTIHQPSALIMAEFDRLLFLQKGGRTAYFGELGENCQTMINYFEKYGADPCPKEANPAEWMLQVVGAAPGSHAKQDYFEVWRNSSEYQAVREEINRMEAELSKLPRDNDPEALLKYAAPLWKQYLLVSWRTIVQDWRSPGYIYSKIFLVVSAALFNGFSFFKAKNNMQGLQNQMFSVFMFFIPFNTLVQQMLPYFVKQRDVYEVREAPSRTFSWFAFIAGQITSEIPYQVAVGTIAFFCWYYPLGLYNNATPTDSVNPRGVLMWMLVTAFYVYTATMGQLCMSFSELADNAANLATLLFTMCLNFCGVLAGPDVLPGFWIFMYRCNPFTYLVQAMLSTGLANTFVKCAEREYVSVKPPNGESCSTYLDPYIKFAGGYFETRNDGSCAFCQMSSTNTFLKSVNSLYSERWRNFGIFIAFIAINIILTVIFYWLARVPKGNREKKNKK

[8] = biological target: T4, Zinc finger protein mex-5 (Caenorhabditis elegans, UniProt Q9XUB2); test: potency of MEX-5 RNA-binding blockers – biochemical, C. elegans, fluorescence polarization, dose response (AID 1960)
T4 sequence (Q9XUB2 whole entry): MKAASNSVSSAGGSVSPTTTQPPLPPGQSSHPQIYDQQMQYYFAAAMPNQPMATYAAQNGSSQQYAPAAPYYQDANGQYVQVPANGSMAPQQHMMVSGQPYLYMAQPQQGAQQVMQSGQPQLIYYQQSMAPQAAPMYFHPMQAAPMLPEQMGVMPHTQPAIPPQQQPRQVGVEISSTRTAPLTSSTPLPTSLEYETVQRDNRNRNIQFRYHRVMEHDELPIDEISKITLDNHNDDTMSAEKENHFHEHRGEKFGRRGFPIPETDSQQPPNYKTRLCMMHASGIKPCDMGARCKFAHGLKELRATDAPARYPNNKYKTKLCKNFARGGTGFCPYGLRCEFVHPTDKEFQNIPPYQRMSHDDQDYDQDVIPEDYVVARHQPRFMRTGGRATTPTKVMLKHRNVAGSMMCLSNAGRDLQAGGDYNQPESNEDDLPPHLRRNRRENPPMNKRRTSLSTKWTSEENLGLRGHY

[9] = biological target: Benomyl/methotrexate resistance protein (Candida albicans, UniProt P28873); test: Candida albicans Mdr1 pump inhibition curves – singleplex, Cherry Pick1 hits, dose response (AID 588608); assay type: functional
[10] = biological target: DNA (cytosine-5)-methyltransferase 1 (Homo sapiens, UniProt P26358); test: inhibition of DNA methylation by DNMT1 – biochemical, fluorescent molecular beacon, confirmation (AID 602386); assay type: functional
Chain of DNA (cytosine-5)-methyltransferase 1 (P26358 whole entry): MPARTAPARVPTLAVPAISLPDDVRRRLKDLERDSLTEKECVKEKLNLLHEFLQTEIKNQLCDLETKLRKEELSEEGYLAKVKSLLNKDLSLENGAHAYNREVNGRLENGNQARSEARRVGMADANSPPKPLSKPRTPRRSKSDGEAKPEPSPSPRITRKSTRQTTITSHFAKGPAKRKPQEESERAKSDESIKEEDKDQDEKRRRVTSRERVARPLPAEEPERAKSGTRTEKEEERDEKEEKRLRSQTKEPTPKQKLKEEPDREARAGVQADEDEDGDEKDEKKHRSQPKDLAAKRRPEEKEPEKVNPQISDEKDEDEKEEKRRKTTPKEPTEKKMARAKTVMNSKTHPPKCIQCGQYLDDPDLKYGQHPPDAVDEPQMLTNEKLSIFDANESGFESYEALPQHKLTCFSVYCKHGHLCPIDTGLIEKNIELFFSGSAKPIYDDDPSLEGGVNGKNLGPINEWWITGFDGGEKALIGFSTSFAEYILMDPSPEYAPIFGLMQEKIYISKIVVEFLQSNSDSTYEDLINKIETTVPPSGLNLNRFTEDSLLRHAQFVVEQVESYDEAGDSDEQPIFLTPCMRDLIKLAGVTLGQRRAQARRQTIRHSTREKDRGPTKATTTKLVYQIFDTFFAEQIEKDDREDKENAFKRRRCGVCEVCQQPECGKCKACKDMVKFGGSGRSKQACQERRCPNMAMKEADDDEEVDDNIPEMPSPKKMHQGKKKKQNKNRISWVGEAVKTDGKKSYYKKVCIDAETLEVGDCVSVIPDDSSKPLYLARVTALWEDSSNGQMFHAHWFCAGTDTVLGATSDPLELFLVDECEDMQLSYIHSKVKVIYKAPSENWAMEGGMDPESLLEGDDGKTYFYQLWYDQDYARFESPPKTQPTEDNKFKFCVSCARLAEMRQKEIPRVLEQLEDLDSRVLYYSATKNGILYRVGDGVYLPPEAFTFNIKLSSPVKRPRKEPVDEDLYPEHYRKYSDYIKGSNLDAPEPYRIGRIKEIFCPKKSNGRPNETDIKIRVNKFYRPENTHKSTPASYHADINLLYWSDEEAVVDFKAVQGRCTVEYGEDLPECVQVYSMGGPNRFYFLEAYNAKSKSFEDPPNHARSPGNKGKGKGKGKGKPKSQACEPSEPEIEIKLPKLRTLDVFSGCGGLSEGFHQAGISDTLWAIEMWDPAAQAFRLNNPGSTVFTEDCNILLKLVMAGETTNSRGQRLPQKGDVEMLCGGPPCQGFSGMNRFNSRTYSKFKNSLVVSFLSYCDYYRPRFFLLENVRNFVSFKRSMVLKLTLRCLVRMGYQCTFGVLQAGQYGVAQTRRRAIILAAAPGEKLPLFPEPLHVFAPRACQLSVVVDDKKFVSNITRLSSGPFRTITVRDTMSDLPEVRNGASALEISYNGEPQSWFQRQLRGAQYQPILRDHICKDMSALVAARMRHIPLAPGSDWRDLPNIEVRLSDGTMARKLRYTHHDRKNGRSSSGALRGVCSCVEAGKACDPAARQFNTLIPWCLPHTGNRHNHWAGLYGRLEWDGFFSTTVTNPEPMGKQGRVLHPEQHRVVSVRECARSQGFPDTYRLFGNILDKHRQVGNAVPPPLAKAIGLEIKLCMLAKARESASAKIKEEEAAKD

[11] = biological target: T5, Rac GTPase-activating protein 1 (Homo sapiens, UniProt Q9H0H5); test: blockers of MgcRacGAP-driven Rac1 GTP hydrolysis – biochemical, ADP Hunter fluorescence, primary and confirmatory, confirmation (AID 624330); assay type: functional
T5 sequence (Q9H0H5 whole entry): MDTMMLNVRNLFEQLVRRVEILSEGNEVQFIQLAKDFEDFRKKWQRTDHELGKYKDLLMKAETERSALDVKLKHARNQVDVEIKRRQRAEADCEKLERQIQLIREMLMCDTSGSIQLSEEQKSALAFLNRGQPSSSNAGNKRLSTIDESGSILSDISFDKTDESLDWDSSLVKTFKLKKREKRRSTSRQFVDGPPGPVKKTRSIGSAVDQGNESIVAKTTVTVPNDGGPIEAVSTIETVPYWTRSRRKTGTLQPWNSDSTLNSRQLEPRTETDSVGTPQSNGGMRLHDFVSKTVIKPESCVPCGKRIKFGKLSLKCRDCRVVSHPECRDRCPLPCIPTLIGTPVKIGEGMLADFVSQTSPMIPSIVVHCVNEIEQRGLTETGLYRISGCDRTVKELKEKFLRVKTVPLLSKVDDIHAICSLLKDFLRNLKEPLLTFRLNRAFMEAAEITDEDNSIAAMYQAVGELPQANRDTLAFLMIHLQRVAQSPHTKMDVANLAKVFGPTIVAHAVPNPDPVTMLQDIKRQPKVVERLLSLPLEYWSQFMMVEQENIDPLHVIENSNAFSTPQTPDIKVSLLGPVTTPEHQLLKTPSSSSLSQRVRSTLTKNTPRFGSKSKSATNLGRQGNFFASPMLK

[12] = Counterscreen for IDE inhibitors: Luminescence-based cell-based high throughput dose response assay to identify compounds that are cytotoxic to HEK cells. [Related pubchem assays: 434962 (Primary screen (IDE inhibitors in singlicate)), 449730 (Counterscreen (Cytotoxicity in triplicate)), 435028 (Confirmation (IDE inhibitors in triplicate)) …; assay type: functional; conditions: HEK293
[13] = biological target: T6, Small ubiquitin-related modifier 1 (Homo sapiens, UniProt P63165); test: SUMO1 protein-protein binding blockers, potency – biochemical, FRET, dose response (AID 624383); assay type: functional; conditions: read-out: IC50_Mean
T6 sequence (P63165 whole entry): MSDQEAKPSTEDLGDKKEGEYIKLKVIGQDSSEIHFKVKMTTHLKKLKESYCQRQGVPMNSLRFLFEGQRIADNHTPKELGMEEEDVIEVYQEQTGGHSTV

Insulin-degrading enzyme = biological target: T7, Insulin-degrading enzyme (Homo sapiens, UniProt P14735); test: Dose Response: Fluorescence polarization-based cell-based high throughput dose response assay for inhibitors of insulin-degrading enzyme (IDE). [Related pubchem assays: 434962 (Primary screen (IDE inhibitors in singlicate)), 449730 (Counterscreen (Cytotoxicity in triplicate)), 435028 (Confirmation (IDE inhibitors in triplicate)), 434984 (Summary …; assay type: functional
T7 sequence (P14735 whole entry): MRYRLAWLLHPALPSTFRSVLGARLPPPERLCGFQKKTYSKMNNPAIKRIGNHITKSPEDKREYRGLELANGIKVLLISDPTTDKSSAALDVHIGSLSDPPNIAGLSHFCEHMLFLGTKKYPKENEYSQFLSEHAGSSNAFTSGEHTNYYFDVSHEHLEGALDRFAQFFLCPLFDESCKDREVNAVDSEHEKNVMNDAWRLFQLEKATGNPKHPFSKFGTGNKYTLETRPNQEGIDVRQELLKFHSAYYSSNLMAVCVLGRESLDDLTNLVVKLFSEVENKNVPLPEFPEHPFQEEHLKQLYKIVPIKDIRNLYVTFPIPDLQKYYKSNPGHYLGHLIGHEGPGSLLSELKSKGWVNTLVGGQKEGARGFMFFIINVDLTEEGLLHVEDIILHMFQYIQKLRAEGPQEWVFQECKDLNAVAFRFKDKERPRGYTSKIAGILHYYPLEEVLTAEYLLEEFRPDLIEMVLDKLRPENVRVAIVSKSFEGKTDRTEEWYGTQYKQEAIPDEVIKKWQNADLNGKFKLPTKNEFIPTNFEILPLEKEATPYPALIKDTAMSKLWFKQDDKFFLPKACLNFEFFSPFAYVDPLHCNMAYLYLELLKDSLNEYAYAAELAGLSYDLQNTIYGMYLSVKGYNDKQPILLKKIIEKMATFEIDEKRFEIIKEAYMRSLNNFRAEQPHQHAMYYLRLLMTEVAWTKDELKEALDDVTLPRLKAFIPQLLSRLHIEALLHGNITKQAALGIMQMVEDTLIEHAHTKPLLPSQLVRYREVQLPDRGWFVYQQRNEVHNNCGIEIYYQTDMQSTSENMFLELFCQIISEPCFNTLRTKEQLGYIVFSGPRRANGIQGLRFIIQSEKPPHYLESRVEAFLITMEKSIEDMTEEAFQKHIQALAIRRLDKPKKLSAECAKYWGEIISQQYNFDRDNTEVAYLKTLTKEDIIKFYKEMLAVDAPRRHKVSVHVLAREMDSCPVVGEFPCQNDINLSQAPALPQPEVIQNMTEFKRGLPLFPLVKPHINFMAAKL

[14] = biological target: T6, Small ubiquitin-related modifier 1; test: SUMO1 protein interaction blockers, potency – biochemical, fluorescence polarization, uHTS hits, dose response (AID 624382); assay type: functional; conditions: read-out: IC50_Mean

## CCc1cc(C(=O)Cc2ccc(F)cc2)c(O)cc1O
[1]
  IC50: 8.38 µM (active)
[2]
  IC50: 4.47 µM (active)

## COc1ccc(C(=O)NCc2cnn(C)c2C)cc1OC1CCN(C(C)C)CC1
[1]
  IC50: 4.47 µM (active)
[2]
  IC50: 2.38 µM (active)

## O=C(O)CCN1C(=O)/C(=C/c2ccc(-c3nc4ccccc4s3)o2)SC1=S
[3]
  IC50: 2.93 µM (active)
Prothrombin
  IC50: 5.11 µM (active)
Genome polyprotein
  IC50: > 100 µM (active)
[4]
  EC50: 12.1 µM (active)
[5]
  EC50: 32.3 µM (active)
[6]
  IC50: > 100 µM (inactive)
[7]
  EC50: 11.2 µM (active)
[8]
  EC50: 21.8 µM (active)
[9]
  EC50: 0.102 µM (active)
[10]
  IC50: 4.66 µM (active)
[11]
  IC50: 30.6 µM (active)

## O=C1Nc2ccccc2/C1=C/c1c[nH]c(-c2ccccc2)n1
[4]
  EC50: 3.89 µM (active)
[12]
  IC50: 18.1 µM (not active)
[13]
  IC50: 4.96 µM (active)
Insulin-degrading enzyme
  IC50: > 55.9 µM (not active)
[14]
  IC50: > 66.6 µM (inactive)

Reference: ChEMBL document CHEMBL1201862, “PubChem BioAssay data set” (2004)
